A short description of test [1]: Compound was evaluated for its binding affinity against Cannabinoid receptor 2 in Guinea pig ileum (GPI) using [3H]CP-55940 ligand.
The nature of test [2]: Compound was evaluated for its binding affinity against Cannabinoid receptor 1 in Guinea pig ileum (GPI) using [3H]CP-55940 ligand.
Test [3] in a line: Compound was evaluated for its binding affinity against Cannabinoid receptor 1 in Guinea pig ileum (GPI) using [3H]SR-141,716A ligand at site 2.
The nature of test [4]: Compound was evaluated for its binding affinity against Cannabinoid receptor 1 in Guinea pig ileum (GPI) using [3H]SR-141,716A ligand at site 1.
Test [5] in a line: Compound was evaluated for its binding affinity against Cannabinoid receptor 1 in Guinea pig ileum (GPI) using [3H]SR-141,716A ligand.

As usually defined, the Ki is the dissociation constant of the complex between target and ligand, obtained from inhibition or displacement. High values mean a looser hold on the target, low ones a stronger hold on the target. For the compound `CC1=C(CCN2CCOCC2)c2ccccc2/C1=C/c1cccc2ccccc12` [4-(2-{2-Methyl-3-[1-naphthalen-1-yl-meth-(Z)-ylidene]-3H-inden-1-yl}-ethyl)-morpholine], the Ki in test [1] is 2.1 nM.
With `C1=C(CCN2CCOCC2)c2ccccc2/C1=C/c1cccc2ccccc12` [4-(2-{3-[1-Naphthalen-1-yl-meth-(E)-ylidene]-3H-inden-1-yl}-ethyl)-morpholine], the Ki in test [2] was found to be 2.7 nM; in test [1], 2.7 nM; in test [3], 611 nM; in test [4], 11 nM.
As for `C1=C(CCN2CCOCC2)c2ccccc2/C1=C\c1cccc2ccccc12` [4-(2-{3-[1-Naphthalen-1-yl-meth-(Z)-ylidene]-3H-inden-1-yl}-ethyl)-morpholine], the Ki in test [2] came to 148 nM; in test [1] it was 132 nM; in test [5] it was 928 nM.

The values above are taken from BindingDB's records for doi:10.1021/jm9801197 (Kennesaw State University, 1999).
